Assay results: patent publication US8575116B1, “Polyacetylenic compounds for protecting against pancreatic islet atrophy” (Academia Sinica, priority 2010, dated 2013)

Assays:
db/db mice = experiment: Glycosylated HbA1c in db/db mice after long-term treatment; type: in vivo, mouse
Protocol: (§1) FIGS. 1A-F show the anti-diabetic effects of cytopiloyne in db/db mice during long-term treatment. (A) Chemical structure of cytopiloyne (2-β-D-glucopyranosyloxy-1-hydroxytrideca-5,7,9,11-tetrayne). (B) Four groups of 6-to-8-week-old diabetic db/db mice were tube-fed with vehicle, cytopiloyne (CP, 0.5 and 2.5 mgkg^−1 day^−1) or glimepiride (GLM, 2.5 mgkg^−1 day^−1) from 0 to 42 days post-treatment. Blood glucose (BG) levels in these mice were measured. (C) Blood insulin levels from the mice of FIG. 1B. (D) IPGTT was performed in the db/db mice of FIG. 1B on day 0, 28 and 42, and blood glucose levels were monitored for 3.5 h. (E) The percentage of glycosylated HbAlc of whole blood from the mice of FIG. 1B on day 0 and 42. (F) Pancreata of 8- and 16-week-old db/db males, which had received the same treatment as FIG. 1B for 2 (images a-h) and 10 (images i-p) weeks, were stained with hematoxylin and eosin (H&E, images a, c, e, g, i, k, m and o) or hematoxylin and anti-insulin (H&I, images b, d, f, h, j, l, n and p). The arrowheads indicate pancreatic islets. Scale bars, 200 μm. Results from 3 independent experiments are expressed as mean±SEM, and P<0.05 was considered to be statistically significant (*). The number of mice (n) is indicated in parentheses.
After 0.5 h, the levels of postprandial blood sugar and insulin from the mice were monitored for additional 4 h. For continued administration, diabetic db/db males were grouped and tube-fed with vehicle, cytopiloyne (0.5 or 2.5 mgkg^−1 day^−1) or glimepiride (2.5 mg kg^−1 day^−1) for the indicated time, while levels of blood sugar, insulin, and glycosylated HbA1c, and glucose tolerance in these mice were determined. To evaluate the prophylaxis of diabetes, diabetes-free db/db mice at 4 weeks of age were tube-fed with vehicle or cytopiloyne (CP, 0.5 mgkg^−1), once a day, for 4 weeks. Unless indicated otherwise, the mice were fasted for 16 h, then Postprandial blood glucose and insulin in these mice were measured.
Glucose levels in mouse blood samples were measured using an Elite® glucometer (Bayer, Pittsburgh, Pa., USA). Insulin levels in blood samples or islet cell supernatants were determined by ELISA assays (Mercodia, Uppsala, Sweden). The levels of glycosylated HbA1c in mouse blood samples were measured using DCA 2000 analyzer (Bayer, Pittsburgh, Pa., USA).

[1] = test system: pancreatic islets of db/db mice; experiment: Pancreatic islet histology/immunohistochemistry in db/db mice; type: in vivo, mouse; conditions: for pancreatic islet structure after long-term treatment: db/db mice 12 to 14 weeks old, cytopiloyne 0.5 and 2.5, glimepiride 2.5 mgkg^−1 day^−1 (FIG. 1F)
Protocol: as §1
Pancreata from db/db males with continuous drug administration were snap frozen in OCT™ compound and stained with hematoxylin and eosin or anti-insulin antibody, followed by diaminobenzidine tetrahydrochloride development. Multiple parallel sections of each pancreas were analyzed by light microscopy.

[2] = test system: human insulin promoter in HIT-T15 β-cells; experiment: Insulin promoter (phINS-Luc) dual luciferase assay in HIT-T15 β-cells; type: cell-based, rat
Protocol: FIGS. 4A-C show an increase in insulin mRNA and protein content by cytopiloyne in pancreatic islet cells. (A) HIT-T15 β-cells transfected with phINS-Luc and pRL-TK plasmids were incubated with vehicle (NS), glimepiride (GLM, 10 μM), high glucose (HG, 16.7 mM) or cytopiloyne at 7, 14 or 28 μM. Ten μg of cell lysates from these cells underwent to dual luciferase assays. […] (C) Rat pancreatic islet cells were treated with vehicle, glucose (3.3 mM (LG) or 16.7 mM (HG)) or cytopiloyne (CP, 7, 14 and 28 μM) in the presence of brefeldin A for 24 h. After anti-insulin antibody staining, these cells underwent FACS analysis. The percentage of insulin-positive β-cells is shown. All the results from 3 independent experiments are expressed as mean±SEM, and P<0.05 was considered to be statistically significant (*).
(A) RIN-M5F cells were grown in medium with 16.7 mM (HG) or 3.3 mM glucose (LG) in the presence of PMA. GF and cytopiloyne. The insulin level of the supernatants was determined using an ELISA kit. (B) RIN-M5F cells were transfected with 5 μg of dominant-negative PKCα or control plasmid grown in medium with 16.7 mM (HG) or 3.3 mM glucose (LG) in the presence of PMA (1 μM), GF109203X (3 μM) or cytopiloyne. The insulin level of the supernatants was determined using an ELISA kit. (C) HIT-T15 cells were transfected with phINS-Luc and pRL-TK plasmids. The cells were grown in medium with 16.7 mM (HG) or 3.3 mM glucose (LG) in the absence or presence of PMA, GF109203X and cytopiloyne. The cell lysates were subjected to dual luciferase assays. (D) HIT-T15 cells were transfected with vehicle or dominant-negative PKCα plasmid together with phINS-Luc and pRL-TK plasmids. The cells were grown in medium with 16.7 mM (HG) or 3.3 mM glucose (LG) in the absence or presence of PMA and cytopiloyne. The cell lysates were subjected to dual luciferase assays.
Plasmids phINS-Luc and pRL-TK contain a human insulin promoter (2347 bp) from phINS-DCR3 vector linked to a firefly luciferase gene and the thymidine kinase promoter linked to Renilla luciferase reporter gene, respectively. Dominant-negative PKCα, phINS-Luc and/or pRL-TK were transfected into HIT-T15 cells with lipofectamine or electroporation.

[3] = 2.5 mgkg^−1 day^−1, day 42, db/db mice 12 to 14 weeks of age (untreated 7.3%)
[4] = 2.5 mgkg^−1 day^−1, versus untreated db/db mice

Compound | HbA1c glycosylated in the blood (db/db mice; 0.5 mgkg^−1 day^−1, day 42, db/db mice 12 to 14 weeks of age (untreated 7.3%)) [%] | decrease of glycosylated HbA1c (db/db mice; 0.5 mgkg^−1 day^−1, versus untreated db/db mice) [%] | HbA1c glycosylated in the blood (db/db mice; [3]) [%] | decrease of glycosylated HbA1c (db/db mice; [4]) [%] | pancreatic islet structure after long-term treatment [1] | protection against islet atrophy ([1]; low dose 0.5 mgkg^−1 day^−1, db/db mice (FIG. 1F)) | insulin transcription (reporter), fold increase ([2]; 28 μM, HIT-T15 β-cells, 24 h) [times] | insulin transcription in HIT-T15 cells ([2]; FIG. 6C, glucose 16.7 mM) | pancreatic islet structure after long-term treatment ([1]; listed as Glimepiride) | insulin transcription (reporter) compared to the control ([2]; 10 μM, HIT-T15 β-cells, 24 h)
CC#CC#CC#CC#CCCC(CO)O[C@@H]1O[C@H](CO)[C@@H](O)[C@H](O)[C@H]1O (stereo partly drawn) [cytopiloyne, 2-β-D-glucopyranosyloxy-1-hydroxytrideca-5,7,9,11-tetrayne] | 6 | 1.3 | 5.6 | 1.7 | much greater preservation of islet structure | protected against islet atrophy | 5 | stimulated insulin transcription |  | 
CCC1=C(C)CN(C(=O)NCCc2ccc(S(=O)(=O)NC(=O)N[C@H]3CC[C@H](C)CC3)cc2)C1=O [glimepiride, reference compound] |  |  | 6.3 | 1 | sporadic islets |  |  |  | failed to provide such a protection | no significant effect on insulin transcription
